Measurements: the supplement of paper PMC10949913

Assays:
Test in all cases: area under concentration-response curve (viability) (AUC (a.u.)); higher = less active
Conditions in all cases: 48 h
[1] = test system: NCI-H295R
Procedure, shortened: (§1)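 Three adrenocortical carcinoma cell lines were seeded at 500–1,000 cells/well in 5 µL medium in 1,536-well plates. 23 nL of each MIPE 5.0 library compound was added at 11 concentrations. After 48 h (per the protocol name), CellTiter-Glo was added for 15 minutes at room temperature and luminescence was read. Signals were normalised per plate to vehicle and empty-well controls. AC50 and area under the curve came from fitted concentration-response curves, keeping only inhibitory or non-responding curve classes.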

[2] = test system: CU-ACC2
Procedure, shortened: as §1

[3] = test system: CU-ACC1
Procedure, shortened: as §1

Structure (SMILES) | area under concentration-response curve [1] | area under concentration-response curve [2] | area under concentration-response curve [3]
C[C@@H]1Cc2c([nH]c3ccccc23)[C@@H](c2c(F)cc(/C=C/C(=O)O)cc2F)N1CC(C)(C)F | 593 | 615 | –
CCCCOc1ccc(CC(=O)NO)cc1 | 573 | 631 | –
C[C@]12CCC3c4ccc(O)cc4CCC3C1CCC2=O (stereo partly drawn) | 508 | 565 | –
CC[C@H](NC1=C2N=C[NH]C2=NC=N1)C/3=N/C4=C(C(=CC=C4)F)C(=O)N3C5=CC=CC=C5 | 536 | 582 | –
O=C(O)CCNc1cc(N2CCc3ccccc3CC2)nc(-c2ccccn2)n1 | 490 | 486 | –
Cc1ccc2c(=O)c3cccc(CC(=O)O)c3oc2c1C | 486 | 540 | –
COc1ccc2[nH]c([S+]([O-])Cc3ncc(C)c(OC)c3C)nc2c1 (stereo not drawn) | 576 | 624 | –
CCC(c1ccc(O)cc1)C(CC)c1ccc(O)cc1 (stereo not drawn) | 607 | 656 | –
O=NN(CCCl)C(=O)NC1CCCCC1 | 538 | 503 | –
Cc1cc(-c2cc(OC(=O)c3ccccc3)ccc2Cl)cc2nnc(Nc3ccc(OCCN4CCCC4)cc3)nc12 | 612 | 664 | –
O=C(NC[C@H](O)CN1CCc2ccccc2C1)c1ccnc(NC2CCC2)c1 | 539 | 535 | –
COC1=CC2=C(C=C1OCCCN3CCCC3)\N=C(N)/C24CCC4 | 547 | 578 | –
CNC(=O)c1ccc2cc(C3(O)CCn4cncc43)ccc2c1 (stereo not drawn) | 556 | 599 | –
C[C@@H](NC1=CC=CC=C1C(O)=O)C/2=C/C(=C\N3C(=O)/C=C(\N=C23)N4CCOCC4)C | 543 | 535 | –
NC/1=N/C2=C(N=C[N]2[C@H]3C[C@H](O)[C@@H](CO)C3=C)C(=O)N1 | 521 | 589 | –
NC(=S)N/N=C/c1ncccc1N | 440 | 442 | –
NC(=O)C/1=C(O)/[C@]2(O)[C@@H](C[C@@H]\3CC4=C(C(=CC=C4)O)\C(=C3C2=O)O)CC1=O | 586 | 640 | –
CCC(=O)Nc1cccc(Oc2nc(Nc3ccc(N4CCN(C)CC4)cc3OC)ncc2Cl)c1 | 465 | 523 | –
Cc1cc(NC(=O)Nc2ccc(N(C)C)cc2)c2cc(F)cc(F)c2n1 | 613 | 667 | –
OC(=O)C/1=C/C(=O)NC(=O)N1 | 529 | 530 | –

Structure (SMILES) | area under concentration-response curve [1] | area under concentration-response curve [2] | area under concentration-response curve [3]
NCCOc1cc(C(=O)Nc2cc(OCCN)c3ccccc3n2)nc(C(=O)Nc2cc(OCCN)c3ccccc3n2)c1 | 507 | 454 | –
O=C(NC[C@H]1CN(c2ccc(N3CCOCC3=O)cc2)C(=O)O1)c1ccc(Cl)s1 | 557 | 605 | –
CNC(=O)c1ccc(N2C(=S)N(c3ccc(C#N)c(C(F)(F)F)c3)C(=O)C2(C)C)cc1F | 499 | 559 | –
COc1ccc(C(=O)CC(=O)c2ccc(C(C)(C)C)cc2)cc1 | 543 | 595 | –
Cc1ccc(NC(=O)[C@H]2CCCN(C(=O)c3c(C)cccc3F)[C@H]2c2ccc(NC3CCCC3)cc2)cc1C(F)(F)F | 521 | 561 | –
Cn1cnc(-c2cc3nccc(Oc4ccc(NC(=S)NC(=O)Cc5ccccc5)cc4F)c3s2)c1 | 412 | 359 | –
CC[C@H](NC(=O)[C@H](C)NC)C(=O)N1C[C@@H](O)C[C@H]1Cc1c(-c2[nH]c3cc(F)ccc3c2C[C@@H]2C[C@H](O)CN2C(=O)[C@H](CC)NC(=O)[C@H](C)NC)[nH]c2cc(F)ccc12 | 610 | 602 | –
NC(=O)c1cccnc1 | 569 | 608 | –
NC\1=N\C(=O)N(\C=C1)[C@@H]2O[C@H](CO)[C@@H](O)[C@@H]2O | 504 | 551 | –
CC1CC2=CC=CC=C2N1C(=O)C\C3=N\C(=O)\C=C(/N3)N4CCOCC4 (stereo not drawn) | 548 | 579 | –
CC(=O)Oc1ccccc1C(=O)Nc1ncc([N+](=O)[O-])s1 | 590 | 634 | –
NC[C@H](O)c1ccc(O)c(O)c1 | 599 | 636 | –
NC/1=N/C(=O)N/C=C1F | 595 | 633 | –
Cc1cc(O)c2c(c1)C(=O)c1cccc(O)c1C2=O | 552 | 604 | –
COc1cc2ncnc(Nc3cccc(Cl)c3F)c2cc1OC(=O)N1CCN(C)C[C@H]1C | 531 | 610 | –
CCN(CC)CCCC(C)Nc1nc(C)cc(Nc2ccc3nc(C)cc(N)c3c2)n1 (stereo not drawn) | 507 | 478 | –
Nc1nc(NCCNc2ncc(-n3ccnc3)c(-c3ccc(Cl)cc3Cl)n2)ccc1[N+](=O)[O-] | 536 | 485 | –
Nc1cccc([S+](=O)([O-])N2CCCN([S+](=O)([O-])c3ccc4c(c3)OCCO4)CC2)c1 | 546 | 634 | –
C[C@@H](O)[C@@H]1NC(=O)[C@H](CCCCN)NC(=O)[C@@H](Cc2c[nH]c3ccccc23)NC(=O)[C@H](Cc2ccccc2)NC(=O)[C@@H](NC(=O)[C@H](N)Cc2ccccc2)CSSC[C@@H](C(=O)N[C@H](CO)[C@@H](C)O)NC1=O | 612 | 648 | –
C/C(=N\NC(=O)c1cccc([S+](=O)([O-])N2CCOCC2)c1)c1cc(Cl)ccc1O | 597 | 640 | –

Structure (SMILES) | area under concentration-response curve [1] | area under concentration-response curve [2] | area under concentration-response curve [3]
O=C(O)c1cnn(-c2nc3cc(Cl)c(OC(F)(F)F)cc3[nH]2)c1 | 548 | 605 | –
CC[C@@](C)(Nc1ccnc(-c2c[nH]c3ncccc23)n1)C(=O)NCC(F)(F)F | 539 | 589 | –
CCC1(c2ccccc2)C(=O)NCNC1=O | 521 | 566 | –
C#Cc1cccc(Nc2ncnc3cc(OCCOC)c(OCCOC)cc23)c1 | 550 | 623 | –
CNC(=O)c1ccccc1Nc1nc(Nc2ccc3c(c2OC)CCC[C@@H](N2CCN(CCO)CC2)C3)ncc1Cl | – | 644 | 548
CN(C)C(=N)NC(=N)N | – | 572 | 550
CCCCOc1nc(N)c2c(n1)N(Cc1cccc(CN3CCCC3)c1)CC(=O)N2 | – | 506 | 538
CC(C)=CC[C@@H](O)C/1=C/C(=O)C2=C(O)C=CC(=C2C1=O)O | – | 603 | 568
CC(C)N(C[C@H]1O[C@@H](n2cnc3c(N)ncnc32)[C@H](O)[C@@H]1O)[C@H]1C[C@@H](CCc2nc3cc(C(C)(C)C)ccc3[nH]2)C1 | – | 598 | 543
COc1ccc2[nH]c([S+]([O-])Cc3ncc(C)c(OC)c3C)nc2n1 (stereo not drawn) | – | 637 | 542
CCOC(=O)N[C@@H]1CC[C@@H]2[C@@H](C1)C[C@H]1C(=O)O[C@H](C)[C@H]1[C@H]2/C=C/c1ccc(-c2cccc(F)c2)cn1 | – | 511 | 537
Nc1nnc(-c2cccc(Cl)c2Cl)c(N)n1 | – | 630 | 563
CCCCC[C@H](O)/C=C/[C@H]1[C@H](O)CC(=O)[C@@H]1CCCCCCC(=O)O | – | 612 | 402
Cn1cc(-c2ccncc2)c(-c2ccc(OCc3ccc4ccccc4n3)cc2)n1 | – | 597 | 495
C[C@]12CC[C@H]3[C@@H](CC[C@@]45O[C@@H]4\C(=C(/C[C@]35C)C#N)O)[C@@H]1CC[C@@H]2O | – | 590 | 571
CN(CCOc1ccc(-c2ccc3c(c2)OCO3)cc1C(C)(C)C)CC(=O)O | – | 486 | 498
CCc1nc(-c2cccc(C)c2)c(-c2ccnc(NC(=O)c3ccccc3)c2)s1 | – | 574 | 490
Cc1cc(C(=O)Nc2cc(Oc3ccc4nc(NC(=O)C5CC5)cn4n3)ccc2C)n(C)n1 | – | 606 | 511
CN1CCN(CC1)C2=CC=C(NC3=NC=C4\C=C(\C#N)C(=O)N(C5CCCC5)C4=N3)C=C2 | – | 588 | 548
